These results are taken from patent US6821991B2, “2-substituted thiazolidinones as β-3 adrenergic receptor agonists” (Wyeth, priority 2000, dated 2004).

Molecules are shown by their SMILES.

Data set [1] deals with T1, β3-adrenergic receptor (Homo sapiens, UniProt P13945).
T1 construct: Full length β3 AR clones (402 amino acids) containing the last 6 amino acids of hβ3-AR are prepared; expressed in transfected cells; host or cells: CHO (Chinese hamster ovary) cells
The data set can be described thus: cAMP accumulation (SPA) in CHO cells transfected with human β3 adrenergic receptor. The class given is cell-based. To be noted: for EC50: CHO cells expressing human β3-AR, cAMP, 30 min, 37° C., 10^-9 M to 10^-5 M; for IA(β3): maximal response relative to maximal response of isoproterenol at 10^-5 M. The method, then:
The ability of compounds of this invention to treat or inhibit disorders related to insulin resistance or hyperglycemia was established with representative compounds of this invention in the following standard pharmacological test procedures, which measured the binding selectivity to the β1, β2, and β3 adrenergic receptors. Binding to the receptors was measured in Chinese Hamster ovary (CHO) cells that were transfected with adrenergic receptors.
Cloning of Human β3-AR Genomic DNA: CDNA was constructed by ligating four polymerase chain reaction (PCR) products using the following primers: an ATG-Narl fragment, sense primer 5′-[…]3′, and anti-sense primer 5′[…]3′; a Narl-Accl fragment, 5′[…]3′ as sense and 5′[…]3′ as anti-sense primer; an Accli-Styl fragment, sense primer 5′[…]3′ and anti-sense primer 5′[…]3′ and a Styl-TAG fragment, with sense primer 5′[…]3′ and anti-sense primer 5′[…]3′. The corresponding primer sequences are described in Mantzoros, C. […] The four fragments are ligated into a pUC 18 plasmid (Gibco-BRL) and sequenced.
Binding Procedure: Clones expressing receptor levels of 70 to 110 fmoles/mg protein were used in the test procedures. CHO cells were grown in 24-well tissue culture plates in Dulbecco's Modified Eagle Media with 10% fetal bovine serum, MEM non-essential amino acids, Penicillin-Streptompycin and Geneticin. On the day of test procedure, growth medium was replaced with preincubation media (Dulbecco's Modified Eagle Media) and incubated for 30 minutes at 37° C. […] Test compounds were tested over a concentration range of 10^−9 M to 10^−5 M for β3 cells and 10^−8 to 10^−4 M for β1 and β2 transfected cells. Isoproterenol (10^−5 M) was used as an internal standard for comparison of activity. Cells were incubated at 37° C. on a rocker for 30 min with the β3 cells and 15 min for β1 and β2 cells. Incubation was stopped with the addition of 0.2N HCl and neutralized with 2.5N NaOH. The plates, containing the cells and neutralized media, were stored at −20 degrees celsius until ready to test for cAMP using the SPA test kit (Amersham).
Data Analysis and Results: Data collected from the SPA test procedure were analyzed as per cent of the maximal isoproterenol response at 10^−5 M. Activity curves were plotted using the SAS statistical and graphics software.

T1 sequence (P13945 whole entry): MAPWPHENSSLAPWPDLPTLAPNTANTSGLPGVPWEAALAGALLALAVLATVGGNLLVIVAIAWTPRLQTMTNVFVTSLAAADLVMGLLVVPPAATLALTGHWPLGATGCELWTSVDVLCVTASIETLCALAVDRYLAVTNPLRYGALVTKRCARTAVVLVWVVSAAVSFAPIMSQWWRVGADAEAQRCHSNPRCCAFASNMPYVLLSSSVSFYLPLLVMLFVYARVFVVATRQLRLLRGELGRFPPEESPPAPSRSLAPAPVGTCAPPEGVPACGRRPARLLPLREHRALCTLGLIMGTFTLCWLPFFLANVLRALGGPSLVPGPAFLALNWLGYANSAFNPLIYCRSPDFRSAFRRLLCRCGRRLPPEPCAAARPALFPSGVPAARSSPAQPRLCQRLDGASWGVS

Turning to `O=C1N=C(N2CCCCC2)SC1=Cc1ccc(N2CCC(NC[C@H](O)COc3ccc(O)cc3)CC2)cc1` [Example 16, 5-(4-{4-[(2S)-2-Hydroxy-3-(4-hydroxy-phenoxy)-propylamino]-piperidin-1-yl}-benzylidene)-2-piperidin-1-yl-thiazol-4-one], the melting point (usually the temperature of the solid-liquid transition) is > 85 °C (dec.). In data set [1], the EC50 (as a rule, the concentration that produces a half-maximal response) came out at 75 nM and the “IA(β3)” value was found to be 0.96.

Turning to `O=C1N=C(NC2CCN(Cc3ccccc3)CC2)SC1=Cc1ccc(N2CCC(NC[C@H](O)COc3ccc(O)cc3)CC2)cc1` [Example 4, 2-(1-Benzyl-piperidin-4-ylamino)-5-(4-{(2S)-4-[2-hydroxy-3-(4-hydroxy-phenoxy)-propylamino]-piperidin-1-yl}-benzylidene)-thiazol-4-one], the melting point was > 175 °C (dec.). In data set [1], the midpoint of the response, the EC50, lay at 230 nM and the “IA(β3)” value came to 0.6.

Regarding `O=C1CCc2c(OC[C@@H](O)CNCCOc3ccc(C=C4SC(N5CCCCC5)=NC4=O)cc3)ccc(O)c2N1` [Example 34, 8-Hydroxy-5-((2S)-2-hydroxy-3-{2-[4-(4-oxo-2-piperidin-1-yl-4H-thiazol-5-ylidenemethyl)-phenoxy]-ethylamino}-propoxy)-3,4-dihydro-1H-quinolin-2-one], the melting point is > 115 °C (dec.). In data set [1], the EC50 worked out at 3 nM and the “IA(β3)” value is 1.0.

With `CCCCCCNC1=NC(=O)C(=Cc2ccc(N3CCC(NC[C@H](O)COc4ccccc4)CC3)cc2)S1` [Example 27, 2-Hexylamino-5-{4-[4-((2S)-2-hydroxy-3-phenoxy-propylamino)-piperidin-1-yl]-benzylidene}-thiazol-4-one], the melting point was 182 to 184 °C (dec.). For the same compound, the “IA(β3)” value in data set [1] came out at 0.58.

On to `O=C1N=C(NCCN2CCOCC2)SC1=Cc1ccc(N2CCC(NC[C@H](O)COc3cccc4[nH]c(=O)[nH]c34)CC2)cc1` [Example 2, 4-[(2S)-2-Hydroxy-3-(1-{4-[2-(2-morpholin-4-ylethylamino)-4-oxo-4H-thiazol-5-ylidenemethyl]-phenyl}-piperidin-4-ylamino)-propoxy]-1,3-dihydrobenzoimidazol-2-one], for which the melting point is > 140 °C (dec.). For the same compound, in data set [1], the EC50 came out at 22 nM and the “IA(β3)” value worked out at 1.0.

Consider `O=C(O)CC[C@H](NC1=NC(=O)C(=Cc2ccc(N3CCC(NC[C@H](O)COc4cccc5[nH]c(=O)[nH]c45)CC3)cc2)S1)C(=O)O` [Example 29, (2S)-2-[5-(4-{4-[(2S)-2-Hydroxy-3-(2-oxo-2,3-dihydro-1H-benzoimidazol-4-yloxy)-propylamino]-piperidin-1-yl}-benzylidene)-4-oxo-4,5-dihydro-thiazol-2-ylamino]-pentanedioic acid], for which the melting point was > 270 °C (dec.). Also, in data set [1], the half-maximal effective concentration (EC50) was found to be 17 nM and the “IA(β3)” value came to 0.91.
